19 molecules from ChEMBL document CHEMBL1759974, “Discovery of triazine-benzimidazoles as selective inhibitors of mTOR” (Bioorg Med Chem Lett, 2011) can be followed below.

Series [1] deals with T1, Serine/threonine-protein kinase mTOR (Homo sapiens, UniProt P42345).
In series [2] the target is T1, Serine/threonine-protein kinase mTOR. This is another data set of the same source.
Series [3] has the same target. This is another data set of the same source.
Description: Inhibition of mTOR in human U-87 cells assessed as inhibition of phosphorylation of AKT at S473
For series [4], the target named is Phosphatidylinositol 4,5-bisphosphate 3-kinase catalytic subunit alpha isoform (Homo sapiens, UniProt P42336).
Chain of Phosphatidylinositol 4,5-bisphosphate 3-kinase catalytic subunit alpha isoform (P42336 whole entry, canonical isoform): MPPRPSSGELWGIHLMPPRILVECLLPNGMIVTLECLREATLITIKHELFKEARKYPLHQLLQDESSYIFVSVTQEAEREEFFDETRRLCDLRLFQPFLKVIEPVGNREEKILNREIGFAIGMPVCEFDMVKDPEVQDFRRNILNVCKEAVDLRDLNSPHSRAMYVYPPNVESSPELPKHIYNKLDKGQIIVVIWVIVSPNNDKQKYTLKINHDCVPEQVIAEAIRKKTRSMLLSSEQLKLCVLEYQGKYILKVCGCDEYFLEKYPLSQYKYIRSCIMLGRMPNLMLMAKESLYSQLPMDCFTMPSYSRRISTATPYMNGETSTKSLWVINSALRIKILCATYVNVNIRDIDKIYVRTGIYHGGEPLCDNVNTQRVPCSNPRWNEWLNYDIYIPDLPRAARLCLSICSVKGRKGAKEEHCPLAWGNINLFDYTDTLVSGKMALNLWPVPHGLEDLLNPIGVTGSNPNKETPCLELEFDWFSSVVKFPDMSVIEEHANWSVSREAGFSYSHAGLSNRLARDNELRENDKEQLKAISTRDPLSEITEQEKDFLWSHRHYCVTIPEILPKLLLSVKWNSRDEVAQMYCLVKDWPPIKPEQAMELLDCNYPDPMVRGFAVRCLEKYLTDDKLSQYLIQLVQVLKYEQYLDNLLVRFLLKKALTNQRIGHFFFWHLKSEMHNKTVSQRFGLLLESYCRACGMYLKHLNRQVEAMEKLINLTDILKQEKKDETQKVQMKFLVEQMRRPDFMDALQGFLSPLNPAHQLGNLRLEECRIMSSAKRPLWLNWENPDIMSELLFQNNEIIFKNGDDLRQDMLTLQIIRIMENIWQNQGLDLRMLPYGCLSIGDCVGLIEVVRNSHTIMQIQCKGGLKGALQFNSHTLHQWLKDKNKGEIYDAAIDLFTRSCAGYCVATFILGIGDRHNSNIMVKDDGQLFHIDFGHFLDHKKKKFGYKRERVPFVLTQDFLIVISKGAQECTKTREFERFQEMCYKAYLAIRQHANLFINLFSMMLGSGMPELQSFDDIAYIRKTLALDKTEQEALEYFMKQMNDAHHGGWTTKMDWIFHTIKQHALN
For series [5], the target named is Phosphatidylinositol 4,5-bisphosphate 3-kinase catalytic subunit beta isoform (Homo sapiens, UniProt P42338).
Chain of Phosphatidylinositol 4,5-bisphosphate 3-kinase catalytic subunit beta isoform (P42338 whole entry, canonical isoform): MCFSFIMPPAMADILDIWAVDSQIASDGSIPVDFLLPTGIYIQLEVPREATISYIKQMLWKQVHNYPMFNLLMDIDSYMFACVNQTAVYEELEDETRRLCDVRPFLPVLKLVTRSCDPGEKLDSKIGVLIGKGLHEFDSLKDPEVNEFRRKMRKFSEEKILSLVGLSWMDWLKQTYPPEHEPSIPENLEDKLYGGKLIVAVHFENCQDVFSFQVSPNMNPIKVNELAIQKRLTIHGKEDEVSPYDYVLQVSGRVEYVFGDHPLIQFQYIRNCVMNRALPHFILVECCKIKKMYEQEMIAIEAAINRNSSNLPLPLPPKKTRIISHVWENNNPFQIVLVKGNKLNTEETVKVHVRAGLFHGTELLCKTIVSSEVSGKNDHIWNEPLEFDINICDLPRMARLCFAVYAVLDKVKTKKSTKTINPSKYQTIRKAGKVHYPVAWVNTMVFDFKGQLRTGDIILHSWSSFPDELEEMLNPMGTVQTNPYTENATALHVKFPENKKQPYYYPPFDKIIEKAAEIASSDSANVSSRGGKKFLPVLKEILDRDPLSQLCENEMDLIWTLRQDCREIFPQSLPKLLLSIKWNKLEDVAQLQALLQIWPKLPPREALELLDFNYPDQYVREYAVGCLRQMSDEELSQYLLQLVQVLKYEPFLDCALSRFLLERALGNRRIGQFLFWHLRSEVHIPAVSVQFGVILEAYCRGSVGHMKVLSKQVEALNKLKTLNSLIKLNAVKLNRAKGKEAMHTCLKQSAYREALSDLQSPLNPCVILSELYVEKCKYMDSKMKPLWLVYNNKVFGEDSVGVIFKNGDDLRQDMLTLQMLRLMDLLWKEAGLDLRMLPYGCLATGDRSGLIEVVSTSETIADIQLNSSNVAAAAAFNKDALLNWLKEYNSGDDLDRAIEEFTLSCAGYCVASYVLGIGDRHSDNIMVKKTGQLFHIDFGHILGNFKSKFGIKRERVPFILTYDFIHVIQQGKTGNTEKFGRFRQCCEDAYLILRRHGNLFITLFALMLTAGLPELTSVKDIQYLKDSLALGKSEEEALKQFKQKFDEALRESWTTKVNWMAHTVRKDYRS
Series [6] concerns the target T2, Phosphatidylinositol 4,5-bisphosphate 3-kinase catalytic subunit delta isoform (Homo sapiens, UniProt O00329).
T2 sequence (O00329 whole entry): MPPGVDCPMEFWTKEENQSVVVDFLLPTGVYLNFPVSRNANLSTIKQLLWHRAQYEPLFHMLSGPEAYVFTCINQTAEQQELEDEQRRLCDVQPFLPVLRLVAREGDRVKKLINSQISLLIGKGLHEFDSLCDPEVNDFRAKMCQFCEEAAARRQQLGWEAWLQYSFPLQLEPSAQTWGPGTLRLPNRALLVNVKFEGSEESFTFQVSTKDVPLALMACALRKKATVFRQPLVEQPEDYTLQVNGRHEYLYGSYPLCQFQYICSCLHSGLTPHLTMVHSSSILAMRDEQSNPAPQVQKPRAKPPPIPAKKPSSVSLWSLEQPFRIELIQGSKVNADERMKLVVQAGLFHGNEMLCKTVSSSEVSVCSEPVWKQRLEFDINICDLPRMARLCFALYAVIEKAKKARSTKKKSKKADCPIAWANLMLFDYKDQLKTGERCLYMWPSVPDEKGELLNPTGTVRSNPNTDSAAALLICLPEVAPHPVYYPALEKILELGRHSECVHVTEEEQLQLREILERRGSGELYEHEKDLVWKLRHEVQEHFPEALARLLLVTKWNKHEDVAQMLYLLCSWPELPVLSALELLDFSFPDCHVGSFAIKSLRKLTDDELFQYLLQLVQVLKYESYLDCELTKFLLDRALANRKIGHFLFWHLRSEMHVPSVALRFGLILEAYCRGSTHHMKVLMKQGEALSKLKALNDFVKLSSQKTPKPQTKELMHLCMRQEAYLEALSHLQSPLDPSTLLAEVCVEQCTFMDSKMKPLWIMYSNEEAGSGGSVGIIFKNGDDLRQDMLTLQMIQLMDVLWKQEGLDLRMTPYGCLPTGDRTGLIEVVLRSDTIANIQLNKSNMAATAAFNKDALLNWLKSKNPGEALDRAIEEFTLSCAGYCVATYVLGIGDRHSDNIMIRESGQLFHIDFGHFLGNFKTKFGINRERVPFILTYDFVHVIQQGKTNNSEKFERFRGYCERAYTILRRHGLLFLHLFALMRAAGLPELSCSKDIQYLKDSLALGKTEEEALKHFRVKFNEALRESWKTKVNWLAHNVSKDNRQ

Series [7] deals with Phosphatidylinositol 4,5-bisphosphate 3-kinase catalytic subunit gamma isoform (Homo sapiens, UniProt P48736).
Chain of Phosphatidylinositol 4,5-bisphosphate 3-kinase catalytic subunit gamma isoform (P48736 whole entry, canonical isoform): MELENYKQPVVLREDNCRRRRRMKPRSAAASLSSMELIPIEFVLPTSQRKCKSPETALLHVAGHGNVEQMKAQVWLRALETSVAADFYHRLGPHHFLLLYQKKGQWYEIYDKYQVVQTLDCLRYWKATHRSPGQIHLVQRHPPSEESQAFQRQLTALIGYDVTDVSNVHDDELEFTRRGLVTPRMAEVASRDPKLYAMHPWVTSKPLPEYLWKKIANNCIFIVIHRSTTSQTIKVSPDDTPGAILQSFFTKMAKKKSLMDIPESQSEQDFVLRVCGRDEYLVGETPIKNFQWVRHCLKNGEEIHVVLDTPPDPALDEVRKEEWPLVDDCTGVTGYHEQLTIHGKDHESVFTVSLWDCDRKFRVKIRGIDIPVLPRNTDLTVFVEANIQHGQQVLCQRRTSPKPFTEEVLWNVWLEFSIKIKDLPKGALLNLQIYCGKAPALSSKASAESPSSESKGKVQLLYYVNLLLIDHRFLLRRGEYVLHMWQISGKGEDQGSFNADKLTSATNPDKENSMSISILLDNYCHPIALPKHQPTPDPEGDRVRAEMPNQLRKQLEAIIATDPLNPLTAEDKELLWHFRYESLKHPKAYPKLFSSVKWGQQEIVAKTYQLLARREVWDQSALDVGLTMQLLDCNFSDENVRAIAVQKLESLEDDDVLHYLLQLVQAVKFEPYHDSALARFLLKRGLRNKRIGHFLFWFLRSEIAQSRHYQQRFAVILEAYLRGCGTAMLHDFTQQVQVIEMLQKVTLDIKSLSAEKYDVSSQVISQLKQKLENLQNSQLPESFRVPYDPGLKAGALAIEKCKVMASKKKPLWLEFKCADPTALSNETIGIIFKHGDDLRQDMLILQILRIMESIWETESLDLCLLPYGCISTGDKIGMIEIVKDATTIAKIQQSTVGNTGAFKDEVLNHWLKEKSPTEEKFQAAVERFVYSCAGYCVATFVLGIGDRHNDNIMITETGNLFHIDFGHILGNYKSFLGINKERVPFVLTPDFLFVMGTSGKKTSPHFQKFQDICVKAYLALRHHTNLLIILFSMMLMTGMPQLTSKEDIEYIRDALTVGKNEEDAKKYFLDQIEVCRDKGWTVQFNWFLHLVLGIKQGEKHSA
Series [8] is described as follows: Clearance in Sprague-Dawley rat at 1 mg/kg, iv and 2 mg/kg, po. It is filed as ADME, organism-based. The settings on record: in vivo.
The nature of series [9]: Volume of distribution at steady state in Sprague-Dawley rat at 1 mg/kg, iv and 2 mg/kg, po. In kind it is ADME, organism-based. The following applies: in vivo, read-out: Vdss.
Another series has as its system Rattus norvegicus. The series can be described thus: AUC in Sprague-Dawley rat at 1 mg/kg, iv. It is filed as ADME, organism-based, Plasma. Also on record: dose 1 mg/kg, route intravenous. The following applies: in vivo.
A short description of series [10]: Half life in Sprague-Dawley rat at 1 mg/kg, iv. In kind it is ADME, organism-based. Also on record: dose 1 mg/kg, route intravenous. The settings on record: in vivo.
The nature of series [11]: Plasma protein binding in Sprague-Dawley rat at 1 mg/kg, iv and 2 mg/kg, po. In kind it is ADME, organism-based. The following applies: read-out: PPB (converted).
The nature of series [12]: Intrinsic clearance in human liver microsomes. In kind it is ADME, Microsome.
The nature of series [13]: Intrinsic clearance in rat liver microsomes. It is filed as ADME, Microsome. On the technique in general: Liver microsomes are a subcellular fraction often used to study metabolism.
The nature of series [14]: Oral bioavailability in Sprague-Dawley rat at 2 mg/kg. It is filed as ADME, organism-based. The following applies: in vivo.
Series [15] deals with Receptor-type tyrosine-protein kinase FLT3 (Homo sapiens) (UniProt P36888). Kind of series: Inhibition of FLT3 at 1 uM relative to control.
Chain of Receptor-type tyrosine-protein kinase FLT3 (Homo sapiens) (P36888 whole entry): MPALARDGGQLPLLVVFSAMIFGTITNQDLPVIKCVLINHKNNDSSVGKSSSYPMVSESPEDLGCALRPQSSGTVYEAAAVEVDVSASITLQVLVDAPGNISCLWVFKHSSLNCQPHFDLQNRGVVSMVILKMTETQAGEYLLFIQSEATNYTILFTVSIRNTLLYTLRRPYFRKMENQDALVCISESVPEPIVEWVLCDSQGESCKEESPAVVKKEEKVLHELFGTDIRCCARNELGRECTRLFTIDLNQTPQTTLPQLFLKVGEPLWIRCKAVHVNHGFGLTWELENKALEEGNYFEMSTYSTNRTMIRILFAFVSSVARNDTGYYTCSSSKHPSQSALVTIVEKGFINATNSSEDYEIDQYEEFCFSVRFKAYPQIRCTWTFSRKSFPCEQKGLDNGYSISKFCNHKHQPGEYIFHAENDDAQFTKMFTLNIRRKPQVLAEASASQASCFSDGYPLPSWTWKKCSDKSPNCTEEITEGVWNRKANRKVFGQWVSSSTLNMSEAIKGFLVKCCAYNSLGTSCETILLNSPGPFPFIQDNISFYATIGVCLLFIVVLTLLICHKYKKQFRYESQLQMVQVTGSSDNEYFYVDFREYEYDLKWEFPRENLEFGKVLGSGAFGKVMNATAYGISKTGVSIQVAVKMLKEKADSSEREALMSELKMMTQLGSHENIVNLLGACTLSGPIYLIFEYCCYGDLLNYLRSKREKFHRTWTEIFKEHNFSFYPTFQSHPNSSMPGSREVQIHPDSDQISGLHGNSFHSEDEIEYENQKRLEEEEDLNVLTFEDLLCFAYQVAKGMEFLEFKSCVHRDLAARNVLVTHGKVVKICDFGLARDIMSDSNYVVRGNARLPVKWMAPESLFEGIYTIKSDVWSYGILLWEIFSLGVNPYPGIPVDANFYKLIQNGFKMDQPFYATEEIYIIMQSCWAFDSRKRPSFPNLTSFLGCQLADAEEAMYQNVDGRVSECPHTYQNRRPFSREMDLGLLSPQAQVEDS
The target of series [16] is Casein kinase II subunit alpha (Homo sapiens) (UniProt P68400). Kind of series: Inhibition of CSNK2A1 at 1 uM relative to control.
Chain of Casein kinase II subunit alpha (Homo sapiens) (P68400 whole entry, looked up): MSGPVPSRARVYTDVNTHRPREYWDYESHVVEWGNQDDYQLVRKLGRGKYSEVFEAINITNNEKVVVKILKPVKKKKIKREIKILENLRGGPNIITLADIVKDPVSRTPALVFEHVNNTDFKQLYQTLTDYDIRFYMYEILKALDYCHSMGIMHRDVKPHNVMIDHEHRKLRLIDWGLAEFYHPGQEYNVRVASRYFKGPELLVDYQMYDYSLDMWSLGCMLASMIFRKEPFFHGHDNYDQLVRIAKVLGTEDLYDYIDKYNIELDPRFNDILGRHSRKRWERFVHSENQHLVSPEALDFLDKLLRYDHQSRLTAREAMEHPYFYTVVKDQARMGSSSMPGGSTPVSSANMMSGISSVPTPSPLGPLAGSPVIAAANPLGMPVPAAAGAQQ

As to `CC(=O)Nc1cccc(Nc2nc3ccccc3n2-c2nc(C)nc(N)n2)c1`, the IC50 came to 290 nM in series [1]; 1500 nM in [2]; 120 nM in [3]; 630 nM in [4]; 1400 nM in series [5]; 890 nM in [6]. This molecule had an IC50 in [7] of 110 nM.
For the molecule `Cc1nc(N)nc(-n2c(Nc3ccccc3)nc3ccccc32)n1`, the IC50 is 420 nM in series [1]; above 25000 nM in series [2]; 190 nM in series [3]; 260 nM in series [4]; 1000 nM in series [5]; 360 nM in [6]. For the same molecule, the IC50 in series [7] came out at 470 nM.
Take `CNC(=O)c1ccc(Nc2nc3ccccc3n2-c2nc(C)nc(N)n2)o1`: the IC50 was 150 nM in [1]; above 25000 nM in series [2]; 680 nM in series [3]; 520 nM in [4]; 1800 nM in series [5]; 140 nM in series [6]. Also, in series [7], inhibition was half-maximal at 26 nM (IC50).
In [8], `Cc1nc(N)nc(-n2c(Nc3ccon3)nc3ccccc32)n1` had a clearance of 30 mL/min/kg. Moreover, the Vd in series [9] turned out to be 1.4 L/kg. The AUC in the series with Rattus norvegicus came to 1930 nM. Besides, in series [10], the half-life was 30 min. Moreover, in series [11], the fraction unbound was 0.023. The microsomal CLint worked out at 39 µL/min/mg in series [12] and 46 µL/min/mg in series [13]. Moreover, the concentration for half-maximal inhibition (IC50) in series [1] was found to be 150 nM; in series [2] it was 3300 nM; in [3] it was 260 nM; in series [4], 840 nM; in series [5], 3100 nM; in series [6], 1300 nM. Moreover, 2300 nM corresponded to half-maximal inhibition in [7] (IC50).
Consider `C#CCNc1nc(C)nc(-n2c(Nc3ccn[nH]3)nc3ccccc32)n1`, for which the IC50 in series [1] was 80 nM; in series [2], 1400 nM; in [3] it was 150 nM; in series [4], 4000 nM; in series [5], 3700 nM; in [6] it was 4600 nM. Further, the 50% inhibitory concentration (IC50) in [7] was 3700 nM.
As for `Cc1nc(N)nc(-n2c(Nc3ccc4cc[nH]c4c3)nc3ccccc32)n1`, the IC50 in series [1] was found to be 28 nM; in series [2], 960 nM; in [3], 140 nM; in series [4] it was 230 nM; in series [5], 1000 nM; in [6], 240 nM. Besides, the 50% inhibitory concentration (IC50) in series [7] worked out at 340 nM.
`Cc1nc(N)nc(-n2c(Nc3cc(O)cc(O)c3)nc3ccccc32)n1`: the IC50 in [1] came to 0.2 nM; in series [2], 97 nM; in series [3], 5 nM; in series [4], 0.6 nM; in series [5], 0.2 nM; in series [6], 0.4 nM. In series [7], this molecule returned an IC50 of 5 nM.
In series [8], `Cc1nc(N)nc(-n2c(Nc3ccn[nH]3)nc3cc(F)c(F)cc32)n1` gave a clearance of 50 mL/min/kg. For the same molecule, the Vd in [9] was found to be 3 L/kg. For the same molecule, in the series on Rattus norvegicus, the AUC is reported as 964 nM. The half-life in series [10] is 42 min. Further, the bioavailability in series [14] was found to be 6%. For the same molecule, the fraction unbound in series [11] was 0.01. Also, the IC50 in series [1] is 24 nM; in series [2] it was 340 nM; in series [3], 45 nM; in [5], 1000 nM; in series [6], 110 nM; in [7], 250 nM.
In the case of `CNC(=O)Nc1ccc(Nc2nc3ccccc3n2-c2nc(C)nc(N)n2)cc1`, the IC50 turned out to be 2 nM in series [1]; 340 nM in [2]; 11 nM in series [3]; 6 nM in [4]; 17 nM in series [5]; 11 nM in series [6]. The same molecule gave an IC50 in [7] of 13 nM.
Regarding `Cc1nc(N)nc(-n2c(Nc3n[nH]c4ccccc34)nc3ccccc32)n1`, the IC50 in [1] is 60 nM; in series [2] it was 4200 nM; in series [3], 250 nM; in series [4] it was 960 nM; in series [5], 420 nM; in series [6], 270 nM. In series [7], this molecule yielded an IC50 of 190 nM.
For `Cc1nc(N)nc(-n2c(Nc3ccc4cn[nH]c4c3)nc3ccccc32)n1`, the IC50 stood at 27 nM in series [1]; 1500 nM in [2]; 120 nM in series [3]; 200 nM in series [4]; 630 nM in series [5]; 320 nM in series [6]. Besides, inhibition in series [7] was half-maximal at 200 nM (IC50).
In the case of `Cc1nc(N)nc(-n2c(Nc3ccn(C)n3)nc3ccccc32)n1`, the IC50 in series [1] turned out to be 270 nM; in series [2], 5300 nM; in series [3], 580 nM; in series [4] it was 6200 nM; in series [5], 28800 nM; in series [6] it was 4600 nM. The molecule also showed an IC50 in series [7] of 4100 nM.
`Cc1nc(N)nc(-n2c(Nc3cccc(O)c3)nc3ccccc32)n1`: the results for the inhibition in [15] and in [16] were 14% and 15%, respectively. The IC50 was 7 nM in [1]; 150 nM in series [2]; 9 nM in [3]; 4 nM in series [4]; 9 nM in [5]; 3 nM in [6]. The same molecule returned an IC50 in series [7] of 8 nM.
With `Cc1nc(N)nc(-n2c(Nc3ccn(C(F)F)n3)nc3ccccc32)n1`, the IC50 in [1] stood at 340 nM; in series [2], 6500 nM; in [3], 770 nM; in series [4], 10400 nM; in series [5] it was 22300 nM; in series [6] it was 530 nM. The same molecule displayed an IC50 in series [7] of 860 nM.
`Cc1nc(N)nc(-n2c(Nc3ccnn3C)nc3ccccc32)n1`: the IC50 in [1] was above 50000 nM; in series [2] it was above 25000 nM; in [3] it was 540 nM; in series [4], 1900 nM; in series [5], 6900 nM; in [6], 3300 nM. Further, 2300 nM corresponded to half-maximal inhibition in series [7] (IC50).
For `Cc1nc(N)nc(-n2c(NC3CCOCC3)nc3ccccc32)n1`, the IC50 in series [1] was 21400 nM; in [2] it was above 25000 nM; in [3], 680 nM; in series [4] it was 1600 nM; in series [5] it was 2400 nM; in [6], 710 nM. This molecule also showed an IC50 in series [7] of 30 nM.
For the molecule `CC(=O)Nc1ccc(Nc2nc3ccccc3n2-c2nc(C)nc(N)n2)cc1`, the IC50 in series [1] was found to be 13 nM; in series [2], 340 nM; in series [3] it was 180 nM; in [4], 23 nM; in series [5] it was 410 nM; in series [6] it was 71 nM. In series [7], this molecule returned an IC50 of 20 nM.
As for `Cc1nc(N)nc(-n2c(Nc3cn[nH]c3)nc3ccccc32)n1`, the IC50 in [1] came out at 190 nM; in [2] it was 5300 nM; in [3], 180 nM; in [4], 460 nM; in series [5], 1000 nM; in [6], 690 nM. In addition, the IC50 in series [7] is 610 nM.
Consider `Cc1nc(N)nc(-n2c(Nc3cccc(C(N)=O)c3)nc3ccccc32)n1`, for which the IC50 in series [1] was determined as 175 nM; in [2], 3900 nM; in series [3] it was 190 nM; in series [4], 290 nM; in series [5] it was 1030 nM; in series [6], 40 nM. This molecule also had an IC50 in series [7] of 480 nM.

Usually IC50 stands for the midpoint of a concentration-inhibition curve. Low readings indicate greater potency, high ones weaker potency. One may read the half-life as how long it takes for the measured level to halve. The term microsomal CLint denotes the rate of metabolic loss divided by the concentration. A higher microsomal CLint goes with faster metabolism. The term bioavailability denotes dose-corrected exposure relative to a reference, in per cent. One may read the inhibition as the change of the read-out against control, counted positive when it falls. Higher therefore signals a strong effect.
